Source: paper PMC6540222, “Small Molecule Inhibitors of KDM5 Histone Demethylases Increase the Radiosensitivity of Breast Cancer Cells Overexpressing JARID1B” (Molecules, 2019)

Key:
MCF-7 cells [1] = test: Flow-cytometry analysis of cell cycle distribution; assay type: cell-based, human; conditions: for cells in G2/M / subG1 cells (possible apoptotic fraction): MCF-7, 30 μM
Method: Flow-cytometry analysis of DNA content was carried out using an EPICS xl flow-cytometer (Beckman-Coulter, Brea, CA, USA). DMSO and inhibitor treated MCF-7 cells were trypsinized, pelleted, washed with PBS and finally resuspended in PBS containing 0.1% Triton-X-100 (#A1388.1000, AppliChem, Darmstadt, Germany) and 40 μg/mL propidium iodide (#P-4170, Sigma). After 20 min incubation at 37 °C the samples were analyzed. 10,000 events were acquired for each sample. Acquired data were analyzed using the WinMDI software by Joe Trotter, available at http://facs.scripps.edu.

[2] = test system: AhR pathway in MCF-7 cells; test: Real Time PCR of CYP1A1 and AHRR transcripts (AhR pathway); assay type: cell-based, human; conditions: MCF-7, 10 μM
Method: Total RNA from treated cells was isolated using miRNeasy® mini kit (#217004, Qiagen, Venlo, Netherlands), according to producer’s protocol guidelines. One μg of total RNA was reverse-transcribed using QuantiTect® Reverse Transcription Kit (#205311, Qiagen), according to producer’s protocol guidelines (Qiagen).
Relative quantification of gene expression was performed with the 7500 Real Time PCR System (Thermo Fisher Scientific (Applied Biosystems), Waltham, MA, USA) using SensiFAST™ SYBR® Lo-ROX Kit (#BIO 94020, Bioline, London, UK). The relative amount of mRNA expression was determined by means of ΔΔCt method, using GAPDH as internal control. Primers were designed using www.ncbi.nlm.nih.gov/tools/primer-blast/ and purchased from Sigma-Aldrich. The following oligos were used: • -3′ CYP1A1 mRNA: • - Fw: 5′- […]-3′ • CYP1A1 mRNA: • - Rv: 5′- […]-3′ • AHRR mRNA: • - Fw: 5′- […]-3′ • AHRR mRNA: • - Rv: 5′- […]-3′-3′ • GAPDH mRNA: • - Fw: 5′- […]-3′ • GAPDH mRNA: • - Rv: 5′- CGTTGTCATACCAGGAAAT-3′

MCF-7 cells [3] = test: CCK-8 viability assay after X-ray irradiation; assay type: cell-based, human; conditions: MCF-7 irradiated with 3 Gy, all concentrations tested, compared to DMSO control, CCK-8 48 h post irradiation
Method: The cytoxicity assay was performed with Cell Counting Kit-8 (#96992, Sigma-Aldrich) according to the manufacturer’s instructions. 100 µL of MCF-7 T47D or MDA-MB231 cell suspension (5000 cells/well) was dispensed in a 96-well plate. After 24 h, inhibitor or DMSO was added in growth medium and then cells were irradiated. 48 h post irradiation, 10 μL of CCK-8 solution was added to each well of the plate and incubated again for 1 h. Incubate the plate for 1–4 h in the incubator. The absorbance at 450 nm was read using a VICTOR2 1420 reader (Perkin Elmer Wallac, Waltham, MA, USA). The absorbance at 450 nm of each sample, which is proportional to the number of viable cells, was first normalized on the same value of absorbance of blank (a well with only growth medium). The absorbance of each dose of radiation (sham, 0.3, 1 and 3 Gy) was normalized to the corresponding DMSO control and then, for each concentration of inhibitors, these values were normalized to the corresponding sham control.

MCF-7 cells [4] = test: Clonogenic assay after X-ray irradiation; assay type: cell-based, human; conditions: for proliferative capacity (clonogenic survival): MCF-7, 10 μM, compared to DMSO control
Method: One hour after treatment with inhibitors, cells were exposed to X-ray using a MLG 300/6-D apparatus (Gilardoni, Lecco, Italy) set to […] and 6 mA, in order to produce an equivalent absorbed dose of 1cGy/s. Afterwards, cells were harvested, counted and then diluted in inhibitor containing growth medium. Appropriate cell numbers were seeded in quadruplicate according to the doubling time of the cell line and to radiation dose. 24 h after this seeding, the medium with inhibitor was replaced with fresh DMEM and cells were then incubated for 14 days (enough time to allow at least six cell divisions). After this period of growth, cells were washed twice with PBS and then fixed and stained with a suitable volume of a solution made of 0.3% Methylene Blue and 80% Ethanol for 30 min at room temperature. After washing cells twice with ddH2O, plates were pictured with ChemiDoc XRS+ Imaging System (Bio-Rad) in colorimetric mode. Colonies were detected using Fiji software, with the “Find maxima” function setting a background noise threshold of 3000. Radiation-dose response curveS to X-ray for DMSO and inhibitor samples were calculated using surviving fraction. Plating efficiency and surviving fraction were calculated as follows:Plating efficiency = number of colonies counted/number of cells plated Surviving fraction = Plating efficiency/plating efficiency of shame sample

KDM5D = KDM5D (Homo sapiens, UniProt Q9BY66); test: Surface Plasmon Resonance (SPR), immobilized KDM5D; assay type: binding; conditions: KDM5D immobilized on COOH5 sensorchip, buffer HSP-1%D, analyte 6.25-100 μM
Method: Surface Plasmon Resonance (SPR) experiments were carried out using a SensiQ Pioneer system (ICx Nomadics, Stillwater, OK, USA). Immobilization of ligand (KDM5D) was carried out essentially as in Ilari et al.. The sensor chip (COOH5) was activated chemically by a 100 µL injection of a 1:1 mixture of N-ethyl-N′-(3-([…])carbodiimide (200 mM) and N-hydroxysuccinimide (50 mM) at a flow rate of 5 µL/min. KDM5D was immobilized on activated sensor chips via amine coupling. The immobilization was carried out in 20 mM sodium acetate at pH 4.5; the remaining unreacted groups were blocked by injecting 1 M ethanolamine hydrochloride (100 µL). The amount of immobilized KDM5D was detected by mass concentration-dependent changes in the refractive index on the sensor chip surface and corresponded to about 11,000 resonance units (RU); an empty flow cell was used as a reference. Analytes, i.e., inhibitors RS3152, RS3183, RS3195, RS4995 and RS5033 were dissolved in DMSO at a concentration of 10 mM and diluted in HSP buffer (10 mM Hepes pH 7.4, 150 mM NaCl + 0.005% surfactant P20) to yield 100 μM inhibitor concentration in HSP + 1% DMSO (HSP-1%D). The analytes were automatically diluted in HSP-1%D and injected on the sensorchip for 120 s at a constant flow (30 µL/min); analyte concentrations were: (1) 6.25 μM; (2) 12.5 μM; (3) 25 μM; (4) 50 μM; (5) 100 μM. The increase in RU relative to baseline indicates complex formation; the plateau region represents the steady-state phase of the interaction, whereas the decrease in RU after 120 s represents dissociation of analytes from immobilized KDM5 after injection of buffer HSP-1%D. The sensorgrams were analysed using the SensiQ Qdat 4.0 program and using simple Scatchard plots.

Chain of KDM5D (Q9BY66 whole entry): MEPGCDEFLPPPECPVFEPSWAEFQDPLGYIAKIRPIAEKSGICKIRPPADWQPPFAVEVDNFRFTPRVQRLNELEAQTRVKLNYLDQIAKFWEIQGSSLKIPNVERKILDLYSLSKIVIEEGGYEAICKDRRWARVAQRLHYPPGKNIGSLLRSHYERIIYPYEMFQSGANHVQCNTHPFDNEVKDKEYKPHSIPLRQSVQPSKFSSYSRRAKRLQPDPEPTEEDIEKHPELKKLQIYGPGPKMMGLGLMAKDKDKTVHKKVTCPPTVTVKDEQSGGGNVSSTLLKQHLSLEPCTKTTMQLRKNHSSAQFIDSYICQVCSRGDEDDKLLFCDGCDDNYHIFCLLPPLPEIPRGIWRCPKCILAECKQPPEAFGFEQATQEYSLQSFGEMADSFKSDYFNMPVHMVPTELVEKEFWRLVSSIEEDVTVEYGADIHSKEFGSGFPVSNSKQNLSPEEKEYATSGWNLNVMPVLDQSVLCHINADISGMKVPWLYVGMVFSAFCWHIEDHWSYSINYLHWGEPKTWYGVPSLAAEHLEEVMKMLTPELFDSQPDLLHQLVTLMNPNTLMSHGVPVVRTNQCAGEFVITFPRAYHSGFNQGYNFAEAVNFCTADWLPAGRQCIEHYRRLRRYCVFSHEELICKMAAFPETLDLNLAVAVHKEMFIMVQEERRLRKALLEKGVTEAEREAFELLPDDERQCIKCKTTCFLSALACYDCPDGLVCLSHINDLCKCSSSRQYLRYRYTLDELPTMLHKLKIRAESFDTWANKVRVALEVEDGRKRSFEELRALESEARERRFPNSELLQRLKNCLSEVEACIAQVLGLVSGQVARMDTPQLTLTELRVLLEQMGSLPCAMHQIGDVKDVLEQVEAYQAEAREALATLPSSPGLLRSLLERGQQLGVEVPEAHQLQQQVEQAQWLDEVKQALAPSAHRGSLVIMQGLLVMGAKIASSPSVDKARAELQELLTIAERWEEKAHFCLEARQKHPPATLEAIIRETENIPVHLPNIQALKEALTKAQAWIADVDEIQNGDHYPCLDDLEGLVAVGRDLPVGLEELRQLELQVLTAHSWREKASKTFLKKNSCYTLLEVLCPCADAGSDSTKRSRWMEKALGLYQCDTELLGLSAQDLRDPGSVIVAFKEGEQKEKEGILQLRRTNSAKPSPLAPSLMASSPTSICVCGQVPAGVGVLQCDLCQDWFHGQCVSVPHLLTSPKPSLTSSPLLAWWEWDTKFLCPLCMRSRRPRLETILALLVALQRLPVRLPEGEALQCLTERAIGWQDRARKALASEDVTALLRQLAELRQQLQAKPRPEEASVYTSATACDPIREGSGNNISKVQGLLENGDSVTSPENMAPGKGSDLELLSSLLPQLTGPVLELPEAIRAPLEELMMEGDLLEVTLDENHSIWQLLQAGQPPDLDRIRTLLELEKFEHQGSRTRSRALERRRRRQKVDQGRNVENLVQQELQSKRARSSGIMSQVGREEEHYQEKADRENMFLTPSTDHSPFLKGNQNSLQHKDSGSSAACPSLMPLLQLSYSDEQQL

Kd (KDM5D) [µM]	number of clones in sham-irradiated cells (MCF-7 cells [4]; MCF-7, sham-irradiated (not shown))	SMILES	perturbation of cell cycle dynamics (MCF-7 cells [1]; MCF-7, 10 μM and 30 μM)	cells in G2/M (MCF-7 cells [1])	subG1 cells (possible apoptotic fraction) (MCF-7 cells [1])	CYP1A1 and AHRR transcript levels (AhR pathway genes) [2]	reduction of viable cells (MCF-7 cells [3])	proliferative capacity (clonogenic survival) (MCF-7 cells [4]; 3 Gy irradiation dose)	cell cycle dynamics (MCF-7 cells [1]; MCF-7, 1 μM)	cell cycle dynamics (MCF-7 cells [1]; MCF-7, 10 μM)	proliferative capacity (clonogenic survival) (MCF-7 cells [4]; irradiated)
32 ± 2		CCOC(=O)c1ccccc1C(=O)c1cccc(NS(=O)(=O)c2ccc(OC)cc2)c1 [RS5033]	no significant perturbation	not observed	not observed	only a slight increase	20–35%	slight but significant decrease			
38 ± 2	lower number of clones	CCOC(=O)c1cccn1C(=O)c1cccc(NS(=O)(=O)c2ccc(OC)cc2)c1 [RS3195]		clear increase of cells in G2/M	consistent increase of subG1 cells	induces the genes involved in AhR pathway	more limited effect		No cell cycle perturbation	slight but significant increase of G0/G1 population	no significant effect
